In ChEMBL document CHEMBL6178021, “Optimization of Tambjamines Active against Multiple Stages of Malaria Parasites” (J Med Chem, 2025):
Values after ≈ are worked out from the molar mass of the structure shown.

What was measured:
[1] = test system: Plasmodium falciparum; test: Antiplasmodial activity against asexual blood-stage Plasmodium falciparum Tm90-C2B using 2% haematocrit and 0.2% parasitemia assessed as reduction in fluorescence measured after 72 hrs by Malaria SYBR Green I-based Fluorescence (MSF) assay; type: functional, organism-based
[2] = test system: HepG2; test: Cytotoxicity against human HepG2 cells assessed as cell viability measured after 48 hrs by MTT assay; type: toxicity, cell-based; settings: hepg2
[3] = Metabolic stability in human liver microsomes assessed as half life measured up to 60 mins by LC/MS analysis; type: ADME, Microsome
[4] = Metabolic stability in mouse liver microsomes assessed as half life measured up to 60 mins by LC/MS analysis; type: ADME, Microsome
[5] = test system: Plasmodium yoelii; test: Antimalarial activity against erythrocytic Plasmodium yoelii MRA-428 infected in CF1 mouse assessed as reduction in parasitemia at 10 mg/kg, po once daily for 4 days measured on day 5; type: functional; parameters: scale not given: the % may be the effect or the level left; settings: time 4 day
[6] = test system: Plasmodium yoelii; test: Antimalarial activity against erythrocytic Plasmodium yoelii MRA-428 infected in CF1 mouse assessed as reduction in parasitemia at 25 mg/kg, po once daily for 4 days measured on day 5; type: functional; parameters: scale not given: the % may be the effect or the level left; settings: time 4 day
[7] = Solubility of the compound in potassium phosphate buffer at pH 7.4 by UV-vis spectroscopy; settings: buffer
[8] = test system: MDR1 (human); test: (§1) Apparent permeability across apical to basolateral side in MDCK transfected with human MDR1 cells incubated for 1 hr by LC-MS analysis; settings: dog, MDCK-MDR1
[9] = (§2) Apparent permeability across basolateral to apical side in MDCK transfected with human MDR1 cells incubated for 1 hr by LC-MS analysis; settings: dog, mdck, 1 h
[10] = test system: MDR1 (human); test: Efflux ratio, ratio of apparent permeability across apical to basolateral side over basolateral to apical side in MDCK transfected with human MDR1 cells incubated for 1 hr by LC-MS analysis; settings: dog
[11] = in vitro; settings: human
Description: Selectivity index, ratio of IC50 for cytotoxicity against human HepG2 cells to IC50 for antiplasmodial activity against asexual blood-stage Plasmodium falciparum D6

[12] = in vitro; settings: human, liver microsomes
[13] = in vitro; settings: mouse, liver microsomes
[14] = test system: Plasmodium falciparum; test: microbe, parasite or virus in culture; settings: D6, 72 h
Description: Antiplasmodial activity against asexual blood-stage Plasmodium falciparum D6 using 2% haematocrit and 0.2% parasitemia assessed as reduction in fluorescence measured after 72 hrs by Malaria SYBR Green I-based Fluorescence (MSF) assay

[15] = test system: Plasmodium falciparum; test: microbe, parasite or virus in culture; settings: Dd2, 72 h
Description: Antiplasmodial activity against asexual blood-stage Plasmodium falciparum Dd2 using 2% haematocrit and 0.2% parasitemia assessed as reduction in fluorescence measured after 72 hrs by Malaria SYBR Green I-based Fluorescence (MSF) assay

[16] = test system: Plasmodium yoelii; test: Antimalarial activity against erythrocytic Plasmodium yoelii MRA-428 infected in CF1 mouse assessed as reduction in parasitemia at 50 mg/kg, po once daily for 4 days measured on day 5; type: functional; parameters: scale not given: the % may be the effect or the level left; settings: time 4 day
[17] = test system: Plasmodium yoelii; test: Antimalarial activity against erythrocytic Plasmodium yoelii MRA-428 infected in CF1 mouse assessed as cured mouse at 25 mg/kg, po once daily for 4 days measured on day 28 day; type: functional, organism-based; settings: time 4.0 day
[18] = test system: Plasmodium yoelii; test: Antimalarial activity against erythrocytic Plasmodium yoelii MRA-428 infected in CF1 mouse assessed as cured mouse at 50 mg/kg, po once daily for 4 days measured on day 28 day; type: functional, organism-based; settings: time 4.0 day
[19] = as §1; settings: dog, mdck, 1 h
[20] = test system: MDR1 (human); test: as §2; settings: dog, MDCK-MDR1
[21] = test system: Plasmodium yoelii; test: Antimalarial activity against erythrocytic Plasmodium yoelii MRA-428 infected in CF1 mouse assessed as reduction in parasitemia at 80 mg/kg, po once daily for 4 days measured on day 5; type: functional; parameters: scale not given: the % may be the effect or the level left; settings: time 4 day
[22] = test system: Plasmodium yoelii; test: Antimalarial activity against erythrocytic Plasmodium yoelii MRA-428 infected in CF1 mouse assessed as cured mouse at 80 mg/kg, po once daily for 4 days measured on day 28 day; type: functional, organism-based; settings: time 4.0 day

Compound | IC50 [1] [nM] | IC50 [2] [nM] | half-life [3] [h] | half-life [4] [h] | Activity [5] [%] | Activity [6] [%] | solubility [7] [µM] | Papp A→B at 1 h [8] [×10⁻⁶ cm/s] | Papp [9] | efflux ratio at 1 h [10] | microsomal CLint at 1 h [12] [µL/min/mg] | microsomal CLint at 1 h [13] [µL/min/mg] | IC50 [14] [nM] | IC50 [15] [nM] | Activity [16] [%] | Activity [17] | Activity [18] | Papp [19] | other results
CCC1=C(CC)/C(=C/NC23C[C@H]4C[C@@H](C2)C[C@@H](C3)C4)N=C1c1ccc(Br)[nH]1 | 15.6 | 4020 | > 1 | > 1 | 33.1 | 67.1 | 25.8 (≈ 11.1 µg/mL) | 0.002 | 0.39 ×10⁻⁶ cm/s | 0.23 | 14.4 | 7.36 | 18.1 | 24.6 |  |  |  |  | selectivity ratio [11]: 222
CCC1=C(CC)/C(=C/NC2CCCCCC2)N=C1c1ccc(C)[nH]1 | 9.02 | 4220 | > 1 | > 1 | 92.2 | 100 | 35.9 (≈ 11.7 µg/mL) | 0.007 | 0.45 ×10⁻⁶ cm/s |  | 18.3 | 16.6 | 4.47 | 3.83 | 100 | Not active; None Of The Mouse Cured Out Of Four Tested | Not active; None Of The Mouse Cured Out Of Four Tested |  | 
CCC1=C(CC)/C(=C/NC23C[C@H]4C[C@@H](C2)C[C@@H](C3)C4)N=C1c1cc2cc(Cl)ccc2[nH]1 | 175 | 5020 | > 1 | > 1 |  |  | 18.3 (≈ 7.94 µg/mL) | 0.002 | 0.85 ×10⁻⁶ cm/s | 0.37 | 8.8 | 4.72 | 106 | 133 |  |  |  |  | selectivity ratio [11]: 47
[2H]C([2H])(C)c1ccc(C2=N/C(=C\NC3CCCCCC3)C(C)=C2C)[nH]1 | 10.1 | 6550 | > 1 | > 1 | 78.5 | 96.5 | 42 (≈ 13.2 µg/mL) |  | 0.007 10^-6 cm/s |  | 14 | 16 | 5.08 | 5.91 |  |  |  | 0.29 10^-6 cm/s | 
CCC1=C(CC)/C(=C/NC2CCCCC2)N=C1c1ccc(Br)[nH]1 | 172 |  | > 1 | > 1 |  |  | 4.46 (≈ 1.68 µg/mL) | 0.004 | 0.15 ×10⁻⁶ cm/s | 0.038 |  | 16 |  | 336 |  |  |  |  | 
COc1ccc(Cc2ccc(C3=N/C(=C\NC4CCCCCC4)C4=C3OCCO4)[nH]2)cc1 | 15.1 | 1480 | > 1 | > 1 | 1.5 |  | 5.52 (≈ 2.39 µg/mL) |  | 0.57 ×10⁻⁶ cm/s |  | 16.1 | 20.6 | 11.9 | 21.3 |  |  |  |  | 
CCC1=C(CC)/C(=C/NC2CCCCCC2)N=C1c1ccc(Cc2ccc(OC)cc2)[nH]1 | 16.3 | 4340 | > 1 | > 1 | 0 | 0 | 20.5 (≈ 8.85 µg/mL) |  |  |  | 2.23 | 2.27 | 9.93 | 8.42 |  |  |  | 0.18 ×10⁻⁶ cm/s | 
CCc1ccc(C2=N/C(=C\NC3CCCCCC3)C3=C2CCCC3)[nH]1 | 1.74 | 1060 | > 1 | > 1 | 22.7 | 100 | 15.4 (≈ 5.2 µg/mL) |  |  |  | 8.31 | 10.3 | 4.8 | 1.36 | 100 | Not active; None Of The Mouse Cured Out Of Four Tested | Not active; None Of The Mouse Cured Out Of Four Tested | 0.24 ×10⁻⁶ cm/s | Papp B→A at 1 h [20]: 0.003 ×10⁻⁶ cm/s
COc1ccc(Cc2ccc(C3=N/C(=C\NC4CCCCCC4)C4=C3CCCC4)[nH]2)cc1 | 2.8 | 1340 | > 1 | > 1 | 0 | 0 | 11.4 (≈ 4.9 µg/mL) |  |  |  | 3.18 | 2.07 | 6.1 | 5.56 |  |  |  | 0.7 ×10⁻⁶ cm/s | 
CCC1=C(CC)/C(=C/N[C@H]2CC[C@H](C)CC2)N=C1c1ccc[nH]1 | 97.1 |  |  |  | 88.8 | 100 | 205 (≈ 63.9 µg/mL) | 0.015 |  | 8.7 | 59.5 | 37 | 67.9 | 89.3 | 100 | Active; Two Mouse Cured Out Of Four | Active; Two Mouse Cured Out Of Four |  | Activity [21]: 100%; Activity [22]: Not active; None Of The Mouse Cured Out Of Four Tested; Papp B→A at 1 h [20]: 0.13 ×10⁻⁶ cm/s; selectivity ratio [11]: 235
CCC1=C(CC)/C(=C/NC2CCCCCCC2)N=C1c1ccc(CC)[nH]1 | 7.8 | 2720 | > 1 | > 1 | 63.1 | 100 | < 3.125 |  | 0.28 ×10⁻⁶ cm/s |  | 7 | 14.6 | 15.9 | 7.21 | 100 | Not active; None Of The Mouse Cured Out Of Four Tested | Not active; None Of The Mouse Cured Out Of Four Tested |  | 
CCc1ccc(C2=N/C(=C\NC3CCCCC3)C3=C2CCCC3)[nH]1 | 1.41 | 1190 | > 1 | > 1 | 43.1 | 100 | 19.5 (≈ 6.31 µg/mL) | 0.007 |  |  | 6.93 | 5.71 | 3.5 | 1.4 | 100 | Not active; None Of The Mouse Cured Out Of Four Tested | Not active; None Of The Mouse Cured Out Of Four Tested |  | Activity [21]: 100%; Activity [22]: Not active; None Of The Mouse Cured Out Of Four Tested; Papp B→A at 1 h [20]: 0.22 ×10⁻⁶ cm/s
